Test results published in paper PMC4293695 (Bioorganic & medicinal chemistry letters, 2014).

Key:
[1] = cited from earlier work
[2] = target: PCP site of the NMDA receptor; format: binding; details: read-out: [3H]TCP Ki; [3H]TCP as radioligand; rat brain membrane suspensions; mean from two experiments

Compound | measured logD [1] | Ki [2] [nM]
CN(C(=N)Nc1cccc2ccccc12)c1cccc(I)c1 [Ligand 1] | 2.19 | 
CN(C(=N)Nc1cccc2ccccc12)c1cccc(Cl)c1F [Ligand 34] |  | 701
